Our source for the EC50 values is patent EP0560274B1, “Antiherpes peptide derivatives having a ureido N-terminus” (priority 1992, dated 1993).

In the assay the test system is Herpes Simplex Virus (HSV-2). It is filed as cell-based. The following applies: 29 h. As for the experimental part: BHK-21/C13 cells (ATCC CCL 10) are incubated for two days in 150 cm^2 T-flasks (1.5 x 10^6 cells/flask) with alpha-MEM medium (Gibco Canada Inc., Burlington, Ontario, Canada) supplemented with 8% (v/v) fetal bovine serum (FBS, Gibco Canada Inc.). The cells are trypsinized and then transferred to fresh media in a 24 well plate to give 2.5 x 10^5 cells in 750 µL of media per well. The cells are incubated at 37° for a period of 6 h to allow them to adhere to the plate. Thereafter, the cells are washed once with 500 µL of alpha-MEM supplemented with 0.5% (v/v) FBS and then incubated with 750 µL of the same media (low serum) for 3 days. After this period of serum starvation, the low serum medium is removed and the cells are incubated in 500 µL of BBMT for 2 to 3 hours. {BBMT medium is described by P. Brazeau et al., Proc. Natl. Acad. Sci. USA, 79, 7909 (1982).} Thereafter, the cells are infected with HSV-2 (multiplicity of infection = 0.02 PFU/cell) in 100 µL of BBMT medium. (Note: The HSV-2 used was strain HG-52, see Y. Langelier and G. Buttin, J. Gen. Virol., 57, 21 (1981); the virus was stored at -80°.) Following 1 h of virus adsorption at 37°, the media is removed and the cells are washed with BBMT (3 X 250 µL). The cells in each well are incubated with or without (control) appropriate concentrations of the test agent dissolved in 200 µL of BBMT medium. After 29 h of incubation at 37°, the infected cells are harvested by first freezing the plate at -80°, followed by thawing. The cells in each well are scraped off the surface of the well with the help of the melting ice fragments. After complete thawing, the cell suspensions are collected and each well is rinsed with 150 µL of BBMT medium. The viral sample (suspension plus washing) is sonicated gently for 4 min at 4°. Cell debris are removed by centrifugation (1000 times gravity for 10 minutes at 4°). The supernatant is collected and stored at -80° until determination of viral titer.
Viral titration was performed by a modification of the colorimetric assay method of M. Langlois et al., Journal of Biological Standardization, 14, 201 (1986).
More specifically, in a similar manner as described above, BHK-21/C13 cells are trypsinized and transferred to fresh media in a 96 well microtiter plate to give 20,000 cells in 100 µL of media per well. The cells in the prepared plate are incubated at 37° for, 2 h. During that time, the viral sample is thawed and sonicated gently for 15 seconds, and log dilutions of the sample are prepared (1/5 sequential: 50 µL of the sample plus 200 µL of BBMT medium, sequential dilutions being done with a multichannel pipette.
On completion of the above 2 hour incubation of the BHK-21/C13 cells, the media is replaced with alpha-MEM medium supplemented with 3% (v/v) FBS. The cells are now ready to be infected with the various sample dilutions of virus. Aliquots (50 µL) of the various dilutions are transferred into the appropriate wells of the plate. The resulting infected cells are incubated for 2 days at 37°. Then 50 µL of a 0.15% (v/v) solution of neutral red dye in Hank's Balanced Salt Solution (pH 7.3, Gibco Canada Inc.) is added to each well. The prepared plate is incubated for 45 min at 37°. Medium from each well is then aspirated and the cells are washed once with 200 µL of Hank's Balanced Salt Solution. After the wash, the dye is released from the cells by the addition of 100 µL of a 1:1 mixture of 0.1 M Sorensen's citrate buffer (pH 4.2) and ethanol. {Sorensen's citrate buffer is prepared as follows: Firstly, a 0.1 M disodium citrate solution is prepared by dissolving citric acid monohydrate (21 g) in 1 N aqueous NaOH (200 mL) and adding sufficient filtered H2O to make 1 L. Secondly, the 0.1 M disodium citrate solution (61.2 mL) is mixed with 0.1 N aqueous HCl (38.8 mL) and the pH of the resulting solution is adjusted to 4.2 if necessary.} The mixture in the wells is subjected to a gentle vortex action to ensure proper mixing.

*1 amine or outer side, *2 acyl side, *3 side chain or, on linkers, in order; H or OH if unused. Where a SMILES comes first, the peptide text is derived from it. [ ]: non-standard residue; d: D form. The star is where a group is joined. Asp(3,3-(CH2)4) = N[C@H](C(=O)O)C1(C(=O)O)CCCC1; tBuAla = CC(C)(C)C[C@H](N)C(=O)O; Tle = CC(C)(C)[C@H](N)C(=O)O; Pyrrolidide = C1CCN(*)C1; CO = O=C([*:1])[*:2]; X3 = CCCC(C)(C)N*

`CCCC(CCC)NC(=O)N[C@H](C(=O)N[C@@H](CC(=O)C1CCC1)C(=O)N[C@H](C(=O)NCC(C)(C)C)C1(C(=O)O)CCCC1)C(C)(C)C` [Pr2CHNHC(O)-Tbg-NH-(S)-CH(2-cyclobutyl-2-oxoethyl)C(O)-Asp(cyPn)-NHCH2CMe3]: the EC50 – broadly, the concentration needed to bring the measured effect to its halfway point – worked out at 160 µM.
`CCCC(CCC)NC(=O)N[C@H](C(=O)N[C@@H](CC(=O)C1CCCCC1)C(=O)N[C@H](C(=O)NCC(C)(C)C)C1(C(=O)O)CCCC1)C(C)(C)C` [Pr2CHNHC(O)-Tbg-NHCH(2-cyclohexyl-2-oxoethyl)C(O)-Asp(cyPn)-NHCH2CMe3] showed an EC50 of 140 µM.
The figure for `CCCC(CCC)NC(=O)N[C@H](C(=O)N[C@@H](CC(=O)C1CCCC1)C(=O)N[C@H](C(=O)NCC(C)(C)C)C1(C(=O)O)CCCC1)C(C)(C)C` [Pr2CHNHC(O)-Tbg-NHCH(2-cyclopentyl-2-oxoethyl)C(O)-Asp(cyPn)-NHCH2CMe3] is 90 µM; for `CCCC(CCC)NC(=O)N[C@H](C(=O)N[C@@H](CC(=O)C(CC)CC)C(=O)N[C@H](C(=O)NCC(C)(C)C)C1(C(=O)O)CCCC1)C(C)(C)C` [Pr2CHNHC(O)-Tbg-NHCH(3-ethyl-2-oxopentyl)CO-Asp(cyPn)-NHCH2CMe3] it is 25 µM.
The figure for `CCCC(C)(C)NC(=O)N[C@H](C(=O)N[C@@H](CC(=O)N1CCCC1)C(=O)N[C@H](C(=O)N[C@@H](CC(C)(C)C)C(=O)O)C1(C(=O)O)CCCC1)C(C)(C)C` [PrMe2CNHC(O)-Tbg-Asp(pyrrolidino)-Asp(cyPn)-γMeLeu-OH] ({X3-CO}-[Tle]D(Pyrrolidide)[Asp(3,3-(CH2)4)][tBuAla]-OH) is 110 µM.
`CCCC(CCC)NC(=O)N[C@H](C(=O)N[C@@H](CC(=O)N1CCCC1)C(=O)N[C@H](C(=O)N[C@H](CO)CC(C)(C)C)C1(C(=O)O)CCCC1)C(C)(C)C` [Title Compound of Example 8, Pr2CHNHC(O)-Tbg-Asp(pyrrolidino)-Asp(cyPn)-γMeLeucinol]: it took 75 µM to reach a half-maximal effect (EC50).
